Reference: patent US20240358693A1, “METHODS OF TREATING PAIN” (Aisa Pharma, Inc., priority 2023, published 2024)

System: participants with SSc-RP
Test: Average duration of weekly RP attacks (minutes)
Type: in vivo, human
Details: Tadalafil 5 mg
From the text: The absolute change in average duration of weekly RP attacks from baseline to the end of each dosing period was and will be a secondary outcome variable. The sponsor-developed participant-informed diary was and will be used to record data. Average duration of weekly RP attacks is defined as the total duration of RP attacks divided by total number of RP attacks within the last 7 days of each dosing period. Total duration of RP attacks during the last 7 days of screening period divided by the total number of RP attacks will be used as baseline for the analysis of all periods. The variable will be calculated similar to frequency data as before.

[1] = n=1, Excluding Outliers, ITT Part A
[2] = Baseline RCS subgroup 2 (unnamed), ITT Part A
[3] = Excluding Outliers, Baseline RCS subgroup 2 (unnamed), ITT Part A
[4] = Excluding Outliers, ITT Population - Part A
[5] = Excluding Outliers, by Baseline RCS, subgroup 2, ITT Population - Part A
[6] = by Baseline RCS, subgroup 2, ITT Population - Part A

CN1CC(=O)N2[C@H](c3ccc4c(c3)OCO4)c3[nH]c4ccccc4c3C[C@@H]2C1=O [Tadalafil, tadalafil]
6.00 min: Average Duration of Weekly Symptomatic RP Attacks, Mean [1] | Average Duration of Weekly Symptomatic RP Attacks, Median [1] | Average Duration of Weekly Symptomatic RP Attacks, Mean [3] | Average Duration of Weekly Symptomatic RP Attacks, Median [3]
412.26 min: Average Duration of Weekly RP Attacks (All Attacks), Mean (ITT Part A) | Average Duration of Weekly RP Attacks (All Attacks), Median (ITT Part A) | Average Duration of Weekly RP Attacks (All Attacks), Mean [6] | Average Duration of Weekly RP Attacks (All Attacks), Median [6]
5.21%: Average Duration of Weekly Symptomatic RP Attacks, Percent Change from Baseline, Mean (n=2, ITT Part A) | Average Duration of Weekly Symptomatic RP Attacks, Percent Change from Baseline, Median (n=2, ITT Part A) | Average Duration of Weekly Symptomatic RP Attacks, Percent Change from Baseline, Mean [2] | Average Duration of Weekly Symptomatic RP Attacks, Percent Change from Baseline, Median [2]
−43.31%: Average Duration of Weekly Symptomatic RP Attacks, Percent Change from Baseline, Mean [1] | Average Duration of Weekly Symptomatic RP Attacks, Percent Change from Baseline, Median [1] | Average Duration of Weekly Symptomatic RP Attacks, Percent Change from Baseline, Mean [3] | Average Duration of Weekly Symptomatic RP Attacks, Percent Change from Baseline, Median [3]
91.80 min: Average Duration of Weekly RP Attacks (All Attacks) Change from Baseline, Mean (ITT Part A) | Average Duration of Weekly RP Attacks (All Attacks) Change from Baseline, Median (ITT Part A) | Average Duration of Weekly RP Attacks (All Attacks) Change from Baseline, Mean [6] | Average Duration of Weekly RP Attacks (All Attacks) Change from Baseline, Median [6]
-4.58 min: Average Duration of Weekly Symptomatic RP Attacks, Change from Baseline, Mean [1] | Average Duration of Weekly Symptomatic RP Attacks, Change from Baseline, Median [1] | Average Duration of Weekly Symptomatic RP Attacks, Change from Baseline, Mean [3] | Average Duration of Weekly Symptomatic RP Attacks, Change from Baseline, Median [3]
-4.98 min: Average Duration of Weekly RP Attacks (All Attacks) Change from Baseline, Mean [4] | Average Duration of Weekly RP Attacks (All Attacks) Change from Baseline, Median [4] | Average Duration of Weekly RP Attacks (All Attacks) Change from Baseline, Mean [5] | Average Duration of Weekly RP Attacks (All Attacks) Change from Baseline, Median [5]
−45.55%: Average Duration of Weekly RP Attacks (All Attacks) Percent Change from Baseline, Mean [4] | Average Duration of Weekly RP Attacks (All Attacks) Percent Change from Baseline, Median [4] | Average Duration of Weekly RP Attacks (All Attacks) Percent Change from Baseline, Mean [5] | Average Duration of Weekly RP Attacks (All Attacks) Percent Change from Baseline, Median [5]
412.29 min: Average Duration of Weekly Symptomatic RP Attacks, Mean (n=2, ITT Part A) | Average Duration of Weekly Symptomatic RP Attacks, Median (n=2, ITT Part A) | Average Duration of Weekly Symptomatic RP Attacks, Mean [2] | Average Duration of Weekly Symptomatic RP Attacks, Median [2]
−7.81%: Average Duration of Weekly RP Attacks (All Attacks) Percent Change from Baseline, Mean (ITT Part A) | Average Duration of Weekly RP Attacks (All Attacks) Percent Change from Baseline, Median (ITT Part A) | Average Duration of Weekly RP Attacks (All Attacks) Percent Change from Baseline, Mean [6] | Average Duration of Weekly RP Attacks (All Attacks) Percent Change from Baseline, Median [6]
5.95 min: Average Duration of Weekly RP Attacks (All Attacks), Mean [4] | Average Duration of Weekly RP Attacks (All Attacks), Median [4] | Average Duration of Weekly RP Attacks (All Attacks), Mean [5] | Average Duration of Weekly RP Attacks (All Attacks), Median [5]
140.74 min: Average Duration of Weekly Symptomatic RP Attacks, Change from Baseline, Mean (n=2, ITT Part A) | Average Duration of Weekly Symptomatic RP Attacks, Change from Baseline, Median (n=2, ITT Part A) | Average Duration of Weekly Symptomatic RP Attacks, Change from Baseline, Mean [2] | Average Duration of Weekly Symptomatic RP Attacks, Change from Baseline, Median [2]
